Experiment: Partition of compound A and compound B between aqueous layer and toluene layer in the presence of various acids
Details: 40° C., 1 hour
Procedure: Thus-obtained mixed solvent was separated into aqueous layer and toluene layer, and then the concentrations of compound A and B in each layer were measured. Partition coefficients Ka or Kb are calculated according to the following equation. Ka=(Concentration of the compound A in aqueous layer)/(Concentration of the compound A in toluene layer) Kb=(Concentration of the compound B in aqueous layer)/(Concentration of the compound B in toluene layer)

In the case of `CN(C)CCC[C@](O)(c1ccc(F)cc1)c1ccc(C#N)cc1CO` [compound A, (S)-4-[4-dimethylamino-1-(4′-fluorophenyl)-1-hydroxybutyl]-3-hydroxymethylbenzonitrile], the “Partition coefficient Ka” value (3-Phenylpropionic acid) is reported as 5.67, the “Partition coefficient Ka” value (4-Biphenylcarboxylic acid) is reported as 0.87 and the “Partition coefficient Ka” value (Benzoic acid) is reported as 18.4. For the same compound, the “Partition coefficient Ka” value (Caproic acid) was 5.04, the “Partition coefficient Ka” value (Cyclohexanecarboxylic acid) was 3.89 and the “Partition coefficient Ka” value (Isobutyric acid) was 39.2. The “Partition coefficient Ka” value (Isophthalic acid) was 7.43, the “Partition coefficient Ka” value (Isovaleric acid) was 24.4 and the “Partition coefficient Ka” value (Maleic acid) was 31.1. For the same compound, the “Partition coefficient Ka” value (Malonic acid) was 38.5, the “Partition coefficient Ka” value (Oxalic acid) was 1092 and the “Partition coefficient Ka” value (Phthalic acid) was 20.8. For the same compound, the “Partition coefficient Ka” value (Pivalic acid) was 9.03, the “Partition coefficient Ka” value (Salicylic acid) was 13.0 and the “Partition coefficient Ka” value (Succinic acid) was 24.1. The “Partition coefficient Ka” value (Terephthalic acid) was 16.8, the “Partition coefficient Ka” value (acid: None) was 0.17 and the “Partition coefficient Ka” value (m-Chlorobenzoic acid) was 4.98. The “Partition coefficient Ka” value (m-Methoxybenzoic acid) was 9.23, the “Partition coefficient Ka” value (m-Nitrobenzoic acid) was 19.5 and the “Partition coefficient Ka” value (m-Toluic acid) was 6.00. For the same compound, the “Partition coefficient Ka” value (o-Chlorobenzoic acid) was 22.8, the “Partition coefficient Ka” value (o-Methoxybenzoic acid) was 27.1 and the “Partition coefficient Ka” value (o-Nitrobenzoic acid) was 30.7. The “Partition coefficient Ka” value (o-Toluic acid) was 9.11, the “Partition coefficient Ka” value (p-Chlorobenzoic acid) was 7.01 and the “Partition coefficient Ka” value (p-Ethylbenzoic acid) was 2.28. For the same compound, the “Partition coefficient Ka” value (p-Fluorobenzoic acid) was 14.4, the “Partition coefficient Ka” value (p-Hydroxybenzoic acid) was 70.8 and the “Partition coefficient Ka” value (p-Methoxybenzoic acid) was 12.3. The “Partition coefficient Ka” value (p-Toluenesulfonic acid) was 164 and the “Partition coefficient Ka” value (p-Toluic acid) was 5.97.

— US8067640B2, “Method for the separation of intermediates which may be used for the preparation of escitalopram” (H. Lundbeck A/S, priority 2002, dated 2011)
